Where “and” joins values, the source holds several entries; their conditions need not be identical. Equal entries are not always repeated. Where two headings read alike, the source gives them in different places. Square brackets hold non-standard residues; d marks the D form. Ends that are not written are not given here. Peptide text beside a SMILES is read from it. 1Nal = N[C@@H](Cc1cccc2ccccc12)C(=O)O

For assay [1], the target named is T1, soluble uPAR (Homo sapiens, UniProt Q03405).
T1 construct: Purified soluble uPAR was biotinylated
As to the kind of experiment: 125I-ATF competition binding to immobilized soluble uPAR (Activity Assay). To be noted: competition with iodinated human uPA ATF tracer (100-500 pM), 2h at room temperature, PBS/0.1% BSA, triplicate. An excerpt:
Purified soluble uPAR was biotinylated with NHS-biotin (Molecular Probes) and immobilized at 0.3 Tg/mL in phosphate-buffered saline (PBS)/0.1% BSA on streptavidin-coated Immulon-2 96-well Removawell plates. Human uPA N-terminal fragment (ATF; from M. Shuman, University of California, San Francisco) was iodinated by the Iodo-Gen method (Pierce). Unincorporated ^125 I was separated from labeled protein by Sephadex G-25 chromatography. The specific activity of the labeled protein was between 5×10^5 and 1×10^6 […]. The iodinated tracer (100-500 pM) was incubated with the peptides prepared in Example 1 triplicate for 2h at room temperature in PBS/0.1% BSA in a total volume of 200 TL. The plates were washed with PBS/0.1% BSA 3X, and remaining bound radioactivity was measured on an LKB 1277 Gammamaster. Scatchard analysis was performed by using the LIGAND program (Biosoft, Milltown, N.J.).

Assay [2] concerns the target uPAR (Homo sapiens, UniProt Q03405). To be noted: E. Appella et al., J Biol Chem (1987), cited from earlier work.
Assay [3] relates to SaOS-2 osteosarcoma cell line. To be noted: S. A. Rabbani et al.; cited from earlier work.
The conditions of assay [4]: U937 fibroblast cells; S. A. Rabbani et al.; cited from earlier work.

T1 sequence (Q03405 23-305 limits assumed): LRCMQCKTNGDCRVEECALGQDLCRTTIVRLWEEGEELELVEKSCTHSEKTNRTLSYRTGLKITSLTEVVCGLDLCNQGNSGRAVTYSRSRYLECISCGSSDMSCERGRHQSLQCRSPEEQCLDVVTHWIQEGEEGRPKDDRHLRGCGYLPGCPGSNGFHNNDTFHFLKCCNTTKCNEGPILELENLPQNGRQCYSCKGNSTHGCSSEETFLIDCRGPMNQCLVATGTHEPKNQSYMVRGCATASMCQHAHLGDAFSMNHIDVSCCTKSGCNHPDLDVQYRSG
Chain of uPAR (Q03405 23-335): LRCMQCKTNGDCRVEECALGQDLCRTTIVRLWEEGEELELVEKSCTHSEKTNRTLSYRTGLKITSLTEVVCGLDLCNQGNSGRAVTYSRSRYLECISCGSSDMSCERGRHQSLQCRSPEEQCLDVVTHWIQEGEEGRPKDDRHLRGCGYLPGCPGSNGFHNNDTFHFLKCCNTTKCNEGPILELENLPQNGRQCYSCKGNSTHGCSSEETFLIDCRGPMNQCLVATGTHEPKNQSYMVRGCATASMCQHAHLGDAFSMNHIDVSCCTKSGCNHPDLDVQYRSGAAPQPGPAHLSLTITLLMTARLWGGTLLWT

`CC(C)C[C@H](NC(=O)[C@H](Cc1ccc(O)cc1)NC(=O)[C@@H](CS)NC(=O)CNC(=O)[C@H](Cc1ccccc1)NC(=O)[C@H](CC(N)=O)NC(=O)[C@@H](N)CC(C)C)C(=O)N[C@@H](Cc1c[nH]c2ccccc12)C(=O)N[C@@H](CS)C(=O)N[C@H](C(=O)O)[C@@H](C)O` [SEQ ID NO: 8, LNFGdCYLWCT] (H-LNFG[dC]YLWCT-OH): in assay [1] (read-out: IC50), the half-inhibitory concentration (IC50) was 8 nM and 14 nM.
As for “uPA12-32: The critical domain alone, residues 12-32 of the uPA EGF-like domain (DCLNGGTCVSNKYFSNIHWCN; UniProt P00749 32-52, looked up, fragment)”, the “affinity relative to intact ATF (fold less)” value in assay [2] is listed as “about 100 fold”. In addition, in assay [2] (read-out: affinity for uPAR), the Kd was 40 nM.
Take `CC(C)C[C@H](NC(=O)[C@H](Cc1ccc(O)cc1)NC(=O)[C@H](CCC(N)=O)NC(=O)[C@@H](CO)NC(=O)[C@H](Cc1ccccc1)NC(=O)[C@H](CC(N)=O)NC(=O)[C@@H](N)CC(C)C)C(=O)N[C@@H](Cc1c[nH]c2ccccc12)C(=O)N[C@@H](Cc1ccc(O)cc1)C(=O)N[C@H](C(=O)O)[C@@H](C)O` [SEQ ID NO: 5, LNFdSQYLWYT] (H-LNF[dS]QYLWYT-OH): in assay [1] (read-out: IC50), the IC50 was 7 nM and 11 nM.
`CC(C)C[C@H](NC(=O)[C@H](Cc1ccc(O)cc1)NC(=O)[C@H](CS)NC(=O)[C@@H](CO)NC(=O)[C@H](Cc1ccccc1)NC(=O)[C@H](CS)NC(=O)[C@@H](N)CC(C)C)C(=O)N[C@@H](Cc1cccc2ccccc12)C(=O)N[C@@H](Cc1ccc(O)cc1)C(=O)N[C@H](C(=O)O)[C@@H](C)O` [SEQ ID NO: 10, LCFdSCYLnAYT] (H-LCF[dS]CYL[1Nal]YT-OH): the IC50 in assay [1] (read-out: IC50) turned out to be 79 ± 10 nM.
With “fucosylated EGF-like domain: fucosylated EGF-like domain (uPA4-43, produced by cleavage from pro-uPA) (LHQVPSNCDCLNGGT(Fuc)CVSNKYFSNIHWCNCPKKFGGQHCE; cysteine pairing not given here; UniProt P00749 24-63, looked up, fragment)”, the values for the mitogenic activity result in assay [3] and in assay [4] were “mitogenic” and “Neither fucosylated nor non-fucosylated EGF-like domain was mitogenic”, respectively.
As for `CC(C)C[C@H](NC(=O)[C@H](Cc1ccc(O)cc1)NC(=O)[C@H](CCC(N)=O)NC(=O)[C@@H](CO)NC(=O)[C@H](Cc1ccccc1)NC(=O)[C@H](CC(N)=O)NC(=O)[C@@H](N)CC(C)C)C(=O)N[C@@H](Cc1cccc2ccccc12)C(=O)N[C@@H](Cc1ccc(O)cc1)C(=O)N[C@H](C(=O)O)[C@@H](C)O` [SEQ ID NO: 7, LNFdSQYLnAYT] (H-LNF[dS]QYL[1Nal]YT-OH), the IC50 in assay [1] (read-out: IC50) came to 33 ± 3 nM.
As for `CC(C)C[C@H](NC(=O)[C@H](Cc1ccc(O)cc1)NC(=O)[C@H](CS)NC(=O)[C@@H](CO)NC(=O)[C@H](Cc1ccccc1)NC(=O)[C@H](CC(N)=O)NC(=O)[C@@H](N)CC(C)C)C(=O)N[C@@H](Cc1c[nH]c2ccccc12)C(=O)N[C@@H](CS)C(=O)N[C@H](C(=O)O)[C@@H](C)O` [SEQ ID NO: 11, LNFdSCYLWCT] (H-LNF[dS]CYLWCT-OH), the IC50 in assay [1] (read-out: IC50) was 225 ± 40 nM.
Consider `CC(C)C[C@H](NC(=O)[C@H](Cc1ccc(O)cc1)NC(=O)[C@H](CCC(N)=O)NC(=O)CNC(=O)[C@H](Cc1ccccc1)NC(=O)[C@H](CC(N)=O)NC(=O)[C@@H](N)CC(C)C)C(=O)N[C@@H](Cc1c[nH]c2ccccc12)C(=O)N[C@@H](Cc1ccc(O)cc1)C(=O)N[C@H](C(=O)O)[C@@H](C)O` [SEQ ID NO: 1, LNFGQYLWYT] (H-LNFGQYLWYT-OH), for which, in assay [1] (read-out: IC50), the IC50 turned out to be 41 ± 17 nM.
Turning to `CC(C)C[C@H](NC(=O)[C@H](Cc1ccc(O)cc1)NC(=O)[C@H](CCC(N)=O)NC(=O)CNC(=O)[C@H](Cc1ccccc1)NC(=O)[C@H](CC(N)=O)NC(=O)[C@@H](N)CC(C)C)C(=O)N[C@@H](Cc1cccc2ccccc12)C(=O)N[C@@H](Cc1ccc(O)cc1)C(=O)N[C@H](C(=O)O)[C@@H](C)O` [SEQ ID NO: 4, LNFGQYLnAYT] (H-LNFGQYL[1Nal]YT-OH), the 50% inhibitory concentration (IC50) in assay [1] (IC50 (nM)) was 7 nM and 6 nM.
For `CC(C)C[C@H](NC(=O)[C@H](Cc1ccc(O)cc1)NC(=O)[C@H](CS)NC(=O)[C@@H](CO)NC(=O)[C@H](Cc1ccccc1)NC(=O)[C@H](CS)NC(=O)[C@@H](N)CC(C)C)C(=O)N[C@@H](Cc1c[nH]c2ccccc12)C(=O)N[C@@H](Cc1ccc(O)cc1)C(=O)N[C@H](C(=O)O)[C@@H](C)O` [SEQ ID NO: 9, LCFdSCYLWYT] (H-LCF[dS]CYLWYT-OH), the concentration for half-maximal inhibition (IC50) in assay [1] (read-out: IC50) is 9 nM and 23 nM.

The values are drawn from patent US6030940A, “Peptide analog inhibitors of urokinase receptor activity” (Chiron Corporation, priority 1997, dated 2000).
